According to patent US5679689A, “Quinolone- and naphthyridonecarboxylic acid derivatives” (Bayer Aktiengesellschaft, priority 1994, dated 1997):
Values after ≈ are worked out from the molar mass of the structure shown.

How the values were obtained:
E. coli Neumann = assay: Minimum inhibitory concentration (MIC), serial dilution on Iso-Sensitest Agar; assay type: cell-based; conditions: Escherichia coli, 37° C., about 20 hours
Experimental: (§1) In the following Tables 9 and 10, the minimum inhibitory concentration are shown as a measure of the antibacterial activity and the ID50 values as a measure of the interactions with mammalian DNA of a substance both for compounds according to the invention and for reference compounds from the prior art (EP 520 240).
(§2) The minimum inhibitory concentration (MIC) were determined by a serial dilution method on Iso-Sensitest Agar (Oxoid). For each test substance, a number of agar plates were prepared which, with doubled dilution in each case, contained decreasing concentrations of the active compound. The agar plates were inoculated using a multipoint inoculator (Denley). For inoculation, overnight cultures of the pathogens were used which had previously been diluted such that each inoculation point contained about […] colony-forming particles. The inoculated agar plates were incubated at 37° C. and the microorganism growth was read off after about 20 hours. The MIC value (μg/ml) indicates the lowest active compound concentration at which no growth could be detected using the naked eye.

Staph. aureus ICB 25701 = assay: as above; assay type: cell-based; conditions: Staphylococcus aureus, ICB25701, 37° C., about 20 hours
Experimental: as §1, §2

Bac. fragilis ES 25 = assay: as above; assay type: cell-based; conditions: Bacteroides fragilis, ES25, 37° C., about 20 hours
Experimental: as §2

Ps. aeruginosa Walter = assay: as above; assay type: cell-based; conditions: Pseudomonas aeruginosa, 37° C., about 20 hours
Experimental: as §2

Staph. aureus 133 = assay: as above; assay type: cell-based; conditions: Staphylococcus aureus, 37° C., about 20 hours
Experimental: as §2

[1] = Inhibition of DNA synthesis in CHO-KI cells (interaction with mammalian DNA), fluorophotometric; assay type: cell-based, Chinese hamster; conditions: hamster, cho-k1 cells; concentration at which DNA synthesis in CHO-KI cells is inhibited by 50%; read-out: ID50 (the source's name)
Description: as §1
ID50 is understood as meaning the concentration of a substance at which the DNA synthesis in cells from ovaries of the Chinese hamster (CHO-KI) is inhibited by 50%. This value is determined over defined time intervals in decreasing dilution steps after incubation of the appropriate substances. To do this, the DNA synthesis in CHO-KI cells is determined in comparison to controls by means of fluorophotometric methods.

| Compound | MIC (E. coli Neumann) [µg/mL] | MIC (Staph. aureus ICB 25701) [µg/mL] | MIC (Bac. fragilis ES 25) [µg/mL] | MIC (Ps. aeruginosa Walter) [µg/mL] | MIC (Staph. aureus 133) [µg/mL] | IC50 [1] [µg/mL] |
| --- | --- | --- | --- | --- | --- | --- |
| COc1c(N2CC3C=CC=CC3(N)C2)c(F)cc2c(=O)c(C(=O)O)cn(C3CC3)c12 (stereo not drawn) [Example 4, 7-(3a-amino-1,2,3,7a-tetrahydro-isoindolo2-yl)-1-cyclopropyl-6-fluoro-1,4-dihydro-8-methoxy-4-oxo-3-quinolinecarboxylic acid] | ≤ 0.015 | 0.5 (≈ 1.22 µM) | 2 (≈ 4.86 µM) | 0.5 (≈ 1.22 µM) | ≤ 0.015 | > 64 |
| NC12C=CC=CC1CN(c1c(F)cc3c(=O)c(C(=O)O)cn(C4CC4)c3c1Cl)C2 (stereo not drawn) [Example 3, 7-(3a-amino-1,2,3,7a-tetrahydro-isoindol-2-yl)-8-chloro-1-cyclopropyl-6-fluoro-1,4-dihydro-4-oxo-3-quinolineearboxylic acid] | ≤ 0.015 | 0.25 (≈ 0.601 µM) | 0.125 (≈ 0.301 µM) | 0.5 (≈ 1.2 µM) | ≤ 0.015 | 32 (≈ 77 µM) |
| NC12C=CC=CC1CN(c1c(F)cc3c(=O)c(C(=O)O)cn([C@@H]4C[C@@H]4F)c3c1F)C2 (stereo partly drawn) [Example 8, 7-(3a-amino-1,2,3,7a-tetrahydro-isoindol-2-yl)-6,8-difluoro-1-(cis-2-fluorocydopropyl)-1,4-dihydro-4-oxo-3-quinolineearboxylic acid] | ≤ 0.015 | 0.5 (≈ 1.2 µM) | 0.5 (≈ 1.2 µM) | 0.5 (≈ 1.2 µM) | 0.03 (≈ 0.0719 µM) | 16 (≈ 38.3 µM) |
| NC12C=CC=CC1CN(c1c(F)cc3c(=O)c(C(=O)O)cn(C4CC4)c3c1F)C2 (stereo not drawn) [Example 2, 7-(3a-amino-1,2,3,7a-tetrahydroisoindol-2-yl)-1-cyclopropyl-6,8-difluoro-1,4-dihydro-4-oxo-3-quinolinecarboxylic acid] | ≤ 0.015 | 2 (≈ 5.01 µM) | 1 (≈ 2.5 µM) | 1 (≈ 2.5 µM) | 0.06 (≈ 0.15 µM) | 32 (≈ 80.1 µM) |

Other lines, results leading:

| MIC (E. coli Neumann) [µg/mL] | MIC (Staph. aureus ICB 25701) [µg/mL] | MIC (Bac. fragilis ES 25) [µg/mL] | MIC (Ps. aeruginosa Walter) [µg/mL] | MIC (Staph. aureus 133) [µg/mL] | IC50 [1] [µg/mL] | Compound |
| --- | --- | --- | --- | --- | --- | --- |
| 0.015 (≈ 0.0347 µM) | 0.015 (≈ 0.0347 µM) | 0.125 (≈ 0.289 µM) | 0.5 (≈ 1.16 µM) | 0.015 (≈ 0.0347 µM) | 0.1 (≈ 0.232 µM) | CC1C=CC(N)C2CN(c3c(F)cc4c(=O)c(C(=O)O)cn(C5CC5)c4c3Cl)CC12 (stereo not drawn) [Ref. 3, 7(4-Amino-7-methyl-1,3,3a,4,7,7a-hexahydro-isoindol-2-yl)-8-chloro-1-cycl propyl-6-fluoro-1,4-dihydro-4-oxo-3-quinolinecarboxylic acid, reference compound] |
| 0.015 (≈ 0.0351 µM) | 0.015 (≈ 0.0351 µM) | 0.25 (≈ 0.585 µM) | 1 (≈ 2.34 µM) | 0.015 (≈ 0.0351 µM) | 0.1 (≈ 0.234 µM) | COc1c(N2CC3C(C)C=CC(N)C3C2)c(F)cc2c(=O)c(C(=O)O)cn(C3CC3)c12 (stereo not drawn) [Ref. 2, 7(4-Amino-7-methyl-1,3,3a,4,7,7a-hexahydro-isoindol-2-yl)-1-cyclopropyl-6 fluoro-1,4-dihydro-8-methoxy-4-oxo-3-quinolinecarboxylic acid, reference compound] |
| ≤ 0.015 | 8 (≈ 20.9 µM) | 4 (≈ 10.5 µM) | 1 (≈ 2.62 µM) | 0.06 (≈ 0.157 µM) | 32 (≈ 83.7 µM) | NC12C=CC=CC1CN(c1nc3c(cc1F)c(=O)c(C(=O)O)cn3C1CC1)C2 (stereo not drawn) [Example 9, 7-(3a-amino-1,2,3,7a-tetrahydro-isoindol-2-yl)-1-cyclopropyl-6-fluoro-1,4-dihydro-4-oxo-1,8-naphthyridine-3-carboxylic acid] |
| 0.015 (≈ 0.0361 µM) | 0.06 (≈ 0.144 µM) | 0.5 (≈ 1.2 µM) | 0.5 (≈ 1.2 µM) | 0.015 (≈ 0.0361 µM) | 0.015 (≈ 0.0361 µM) | CC1C=CC(N)C2CN(c3c(F)cc4c(=O)c(C(=O)O)cn(C5CC5)c4c3F)CC12 (stereo not drawn) [Ref. 1, 7(4-Amino-7-methyl-1,3,3a,4,7,7a-hexahydro-isoindol-2-yl)-1-cyclopropyl-6 8-difluoro-1,4-dihydro-4-oxo-3-quinolinecarboxylic acid, reference compound] |
